According to PubChem BioAssay AID2253 (Southern Research Specialized Biocontainment Screening …, 2010):
pEC50: −log10 of the molar value.

system: THP-1 viability, CellTiter-Glo luminescence, 72 h; assay: THP-1 cell cytotoxicity, dose response, cytotoxicity control for Salmonella PhoP regulon inhibitors, S. typhimurium screen hits (AID 2253)

| Compound | pEC50 |
| --- | --- |
| O=C(N/N=C/c1ccc(F)cc1)c1cc(-c2ccco2)nc2ccccc12 | 4.42 |
| O=C(Cn1nc(CNc2ccc(Cl)cc2)[n+]2c1CCCCC2)c1ccc(Br)cc1 | 4.93 |
| CCOC(=O)N1CCN(C(c2cccnc2)c2ccc3cccnc3c2O)CC1 (centres undefined) | 5.03 |
| Nc1c(C(=O)NCCc2ccc(Cl)cc2)sc2ccc(S(=O)(=O)N3CCCCC3)cc12 | 4.50 |
| ON=C1/C(=N\O)CC2(C/C1=N/O)OCCO2 | 4.46 |
| COc1cc([N+](=O)[O-])cc(/C=N/NC(=O)c2cccnc2)c1O | 4.49 |
| COc1cc(C(=O)Oc2c(CN3CCOCC3)cc(Cl)c3cccnc23)cc(OC)c1OC | 5.35 |
| Nc1c(Cl)ncnc1N/N=C/c1ccccn1 | 6.33 |
| COc1c(N2CCN(C(=S)NCc3ccccc3)C(C)C2)c(F)cc2c(=O)c(C(=O)O)cn(C3CC3)c12 (centres undefined) | 4.81 |
| Cc1ccc(C[n+]2cc(-c3ccc(Cl)cc3)n3c2CCC3)cc1 | 4.92 |
| O=C(Nc1nc2cc3c(cc2s1)OCO3)C1=COCCO1 | 5.18 |
| OCc1ccc(O)c2ncccc12 | 5.49 |
| O=C(Cc1n[nH]c(=O)c2ccccc12)OCC(=O)c1ccc2c(c1)OCCO2 | 5.87 |
| O=C(N/N=C/c1c[nH]c2ccccc12)c1cc(-c2ccc3ccccc3c2)n[nH]1 | 5.52 |
| Cc1nc2c(C(=O)NCCC(C)C)c[nH]n2c(=O)c1Cc1ccccc1F | 4.51 |
| C=C1c2c(Cl)ccc(O)c2C(O)=C2C(=O)[C@]3(O)C(O)=C(C(N)=O)C(=O)[C@@H](N(C)C)[C@@H]3[C@@H](O)C12 (some centres undefined) | 4.89 |
| COc1cccc(-c2nnc3sc(-c4ccc(C)cc4)nn23)c1 | 4.35 |
| CCCCCN=C(N)N/N=C/c1c[nH]c2ccc(OC)cc12 | 5.80 |
| C[C@H]1c2cccc(O)c2C(O)=C2C(=O)C3(O)C(O)=C(C(N)=O)C(=O)[C@@H](N(C)C)[C@@H]3[C@@H](O)[C@@H]21 (some centres undefined) | 4.46 |
| CCCCOc1ccc(Cc2cnc(N)nc2N)cc1 | 4.38 |
| Oc1ccccc1NCC(O)Cn1ccc2ccccc21 (centres undefined) | 4.55 |
| COc1ccccc1-c1cc(C(=O)Nc2cc(C)nn2-c2ccccc2)no1 | 4.59 |
| C#CCOCCOCCOCCNc1nc(N2CCN(C(=O)CCCCCCCCCCNC(=O)[C@H](CCCN=C(N)N)n3cc(C[C@@H](C)CC)nn3)CC2)nc(N2CCN(C(=O)CCCCCCCCCCNC(=O)[C@@H]([C@H](C)CC)n3cc(CCCCCN)nn3)CC2)n1 | 5.27 |
| COc1cccc(C(=O)Oc2c(CN3CCOCC3)cc(Cl)c3cccnc23)c1 | 5.15 |
| CCc1ccc(CNc2ccc(O)cc2)cc1 | 4.77 |
| Oc1ccc(CN2CCc3ccccc3C2)c2cccnc12 | 5.47 |
| Cc1ccc(/C=C/C(=O)c2ccccc(=O)c2O)cc1C | 4.76 |

| Compound | pEC50 |
| --- | --- |
| C/C(=N\Nc1ncnc2sc(C)c(C)c12)c1ccccn1 | > 7.00 |
| Nc1ccc(Nc2ccccc2)cc1 | 4.94 |
| CCCCCCCCCCOC(=O)C[N+](C)(C)C/C=C(/C)Cl | 5.07 |
| COc1cccc(/C=N\NC(=O)Cn2nnc3ccccc32)c1O | 4.96 |
| Cc1ccnc(NC(c2cccnc2)c2ccc3cccnc3c2O)c1 (centres undefined) | 4.92 |
| OC(COc1ccc2ccccc2c1Br)Cn1ccnc1 (centres undefined) | 4.36 |
| O=S(=O)(/N=C(/Nc1cccc2ccccc12)c1ccccc1)c1cccs1 | 4.54 |
| O=C(c1ccc(CSc2nc3ccncc3[nH]2)cc1)N1CCN(c2cccc(Cl)c2)CC1 | 4.81 |
| Cc1ccc(C(c2cc(Cl)c3cccnc3c2O)N2CCN(C)CC2)cc1 (centres undefined) | 5.72 |
| Oc1cccc(Nc2c3ccccc3nc3ccccc23)c1 | 4.92 |
| COc1ccc2[nH]c3c(C)c4ccncc4c(C)c3c2c1 | 5.90 |
| CCOC(=O)C[n+]1c(C)sc2ccc(OC)cc21 | 4.59 |
| O=C1C(Nc2ccccc2)=C/C(=N/S(=O)(=O)c2cccs2)c2ccccc21 | 5.82 |
| CC(=O)NC(c1cccc([N+](=O)[O-])c1)c1ccc2cccnc2c1O (centres undefined) | 6.31 |
| c1ccc(Nc2nc3ccccc3[nH]2)nc1 | 4.51 |
| O=c1[nH]c(NCc2ccco2)nnc1Cc1ccccc1Cl | 5.18 |
| CCN(CC(=O)NC(C)(C)C)C(=O)COc1c(Cl)cc(Cl)c2ccc(C)nc12 | 4.43 |
| COc1ccc(OC)c(/C=N/NC(=O)c2cc3c(OC)c(OC)ccc3[nH]2)c1 | 4.36 |
| CCCCCCCCCCCCCCCCn1cc[n+](C)c1 | 6.43 |
| Nc1nonc1C(=O)NCCN=Cc1cc(Cc2ccccc2)cc(Br)c1O | 4.42 |
| C/C(=N\Nc1nc2ccccc2[nH]1)c1ccc(Cl)s1 | 4.49 |
| Cc1scc(C(=O)N/N=C/c2ccc([N+](=O)[O-])o2)c1C | 4.70 |
| Cc1cccc(C)c1NC(=O)CCCSc1nnc(-c2ccc(Cl)cc2)n1-c1ccccc1 | 4.56 |
| CCCCC(CC)CN=C(N)NC(N)=NCCCCCCN=C(N)NC(N)=NCC(CC)CCCC (centres undefined) | 5.72 |
| Clc1ccc(CN2CCC(c3nc4ccc(Cl)cc4[nH]3)CC2)cc1 | 4.53 |
| CCn1c(SCc2nc3scc(-c4ccccc4)c3c(=O)[nH]2)nnc1-c1cccs1 | 4.33 |
| c1cnc2c(c1)ccc1cccnc12 | 5.42 |

| Compound | pEC50 |
| --- | --- |
| CCCCCCCCCC[n+]1cccc2c3ccccc3ccc21 | 6.22 |
| N#Cc1c(NC(=O)c2cnccn2)sc2c1CCCC2 | 5.03 |
| O=[N+]([O-])c1cc(O)c2ncccc2c1 | 5.19 |
| Clc1ccc(Nc2ncnc3c2cnn3-c2ccccc2)cc1 | 4.52 |
| O=C(NCCNc1ccc([N+](=O)[O-])cc1C(F)(F)F)c1cccc(F)c1 | 4.32 |
| COc1ccc(Nc2cc(C)c3c(O)cccc3n2)cc1 | 4.82 |
| C#CCn1cc(/C=N/Nc2nc3ccccc3[nH]2)c2ccccc21 | 5.21 |
| O=C(OCC1O[C@@H](OC(=O)c2cc(O)c(O)c(O)c2)[C@@H](OC(=O)c2cc(O)c(O)c(O)c2)[C@@H](OC(=O)c2cc(O)c(O)c(O)c2)[C@@H]1OC(=O)c1cc(O)c(O)c(O)c1)c1cc(O)c(O)c(O)c1 (some centres undefined) | 4.86 |
| CN(C)S(=O)(=O)c1cccc(NC(=S)N/N=C/c2cc(Br)ccc2O)c1 | 6.19 |
| COc1ccccc1-n1c(SCc2cc(=O)oc3cc(O)ccc23)nc2ccccc2c1=O | 4.66 |
| O=C1c2ccccc2NC(c2ccc(-c3cccc([N+](=O)[O-])c3)o2)N1O (centres undefined) | 5.18 |
| Clc1ccc(OCCN2CCN(c3ncnc4sccc34)CC2)cc1 | > 7.00 |
| O=c1ccc2ccc(Oc3ccc([N+](=O)[O-])cc3[N+](=O)[O-])cc2o1 | 5.10 |
| Cc1ccc(S(=O)(=O)N(CC(=O)N=Nc2c(O)[nH]c3ccccc23)c2ccc(C)c(C)c2)cc1 | 4.91 |
| Cc1cc(C2=NNC(=NC3CC3)SC2)c(C)n1Cc1ccco1 | 5.24 |
| CC1CCN(c2ccc(NC(=S)NC(=O)c3ccc(-c4cccc([N+](=O)[O-])c4)o3)cc2)CC1 | 4.64 |
| NC1=NC[C@H](Cc2ccc(O)cc2)N1CCC12CC3CC(CC(C3)C1)C2 | 4.98 |
| CNc1nc(-c2ccccn2)nnc1-c1ccccc1 | 5.08 |
| CCCCCCCCCCCCCCCC[N+](C)(C)CC | 6.15 |
| CCCC(=O)NC(c1ccc(N(C)C)cc1)c1ccc2cccnc2c1O (centres undefined) | 6.21 |
| NC(=NCCc1c[nH]c2ccccc12)NC(=O)c1ccc(F)cc1 | 4.44 |
| c1ccc(-c2nnc(-c3ccccn3)nc2NC2CCCCC2)cc1 | 5.86 |
| CCN1/C(=C/C=C/c2sc3ccccc3[n+]2CC)Sc2ccccc21 | 6.37 |
| N#C/C(=C\c1ccc(F)c(F)c1)C(=O)NC1CCCCC1 | 4.33 |
| O=C(CSCc1ccccc1)N/N=C/c1ccccc1OCc1ccccc1 | 4.33 |
